Results taken from PubChem BioAssay (NCI).
Where “and” joins values, the source holds several entries; their conditions need not be identical. Equal entries are not always repeated.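 Protocol summary: plate cells (96-well), add compound at 5 concentrations, incubate 48 h, interpolate endpoints linearly. GI50 is the concentration that inhibits growth by half. TGI denotes the concentration required for complete inhibition of growth.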

test system: SNB-19 CNS; experiment: NCI tumour cell line growth inhibition, 48 h

Compound | GI50 | TGI [µM]
Nc1nc(Nc2ccccc2)c2ncn(Cc3cc4c(cc3Br)OCO4)c2n1 | 0.0686 µM | 22.3
O=C(Nc1cccc(Cl)c1)c1cc2ccccc2cc1O | 2.94 µM and 2.37 µM | > 100
Nc1c(C(=O)N/N=C/c2ccc(-c3ccc(Cl)cc3)o2)cnn1-c1ccnc2c(C(F)(F)F)cccc12 | > 100 µM | > 100
CCCCCc1c(C)[nH]c(/C=C2\N=C(c3ccc[nH]3)C=C2CC)c1C | 0.0433 µM | 1.46
N#CC1(C2SCCS2=O)C2=C(C(=O)c3ccccc3C2=O)N2CCCC21 (stereo not given) |  | 16.8
Cc1c[n+](Cc2ccc3ccccc3c2)cn1Cc1ccc2ccccc2c1 | 1.54 µM | 3.14
COc1cc(/C=C2\C(=O)Nc3ccc(F)cc32)cc(OC)c1OC | 38.4 µM | > 100
COC(COC(=O)N1CCN(C=O)CC1)C1=C(N2CC2)C(=O)C(C)=C(N2CC2)C1=O (stereo not given) |  | 13.4
O=C(N/N=C\c1cc(Br)ccc1O)c1ccncc1 | 5.65 µM | > 100
COc1ccc(-n2cc(-c3ccc(Cl)c(Cl)c3)nc2SCc2cccc(C#N)c2)cc1 | 29.2 µM | > 100
O=C1/C(=C\c2cccn2Cc2ccccc2)c2ccccc2N1c1c(Cl)cccc1Cl | > 100 µM | > 100

test system: COLO 205 colon; experiment: NCI tumour cell line growth inhibition, 48 h

Compound | GI50 | TGI
Nc1nc(Nc2ccccc2)c2ncn(Cc3cc4c(cc3Br)OCO4)c2n1 | 0.0716 µM | 0.375 µM
O=C(Nc1cccc(Cl)c1)c1cc2ccccc2cc1O | 19.1 µM and 13.6 µM | > 100 µM and 79 µM
Nc1c(C(=O)N/N=C/c2ccc(-c3ccc(Cl)cc3)o2)cnn1-c1ccnc2c(C(F)(F)F)cccc12 | > 100 µM | > 100 µM
CCCCCc1c(C)[nH]c(/C=C2\N=C(c3ccc[nH]3)C=C2CC)c1C | 0.0188 µM | 0.134 µM
N#CC1(C2SCCS2=O)C2=C(C(=O)c3ccccc3C2=O)N2CCCC21 (stereo not given) |  | 5.71 µM
Cc1c[n+](Cc2ccc3ccccc3c2)cn1Cc1ccc2ccccc2c1 | 1.12 µM | 2.62 µM
COc1cc(/C=C2\C(=O)Nc3ccc(F)cc32)cc(OC)c1OC | 62.7 µM | > 100 µM
COC(COC(=O)N1CCN(C=O)CC1)C1=C(N2CC2)C(=O)C(C)=C(N2CC2)C1=O (stereo not given) |  | 0.897 µM
O=C(N/N=C\c1cc(Br)ccc1O)c1ccncc1 | 1.23 µM | 16.8 µM
COc1ccc(-n2cc(-c3ccc(Cl)c(Cl)c3)nc2SCc2cccc(C#N)c2)cc1 | 51.7 µM | > 100 µM
O=C1/C(=C\c2cccn2Cc2ccccc2)c2ccccc2N1c1c(Cl)cccc1Cl | 1.36 µM | 6.26 µM

test system: NCI-H226 lung; experiment: NCI tumour cell line growth inhibition, 48 h

Compound | GI50 | TGI [µM]
Nc1nc(Nc2ccccc2)c2ncn(Cc3cc4c(cc3Br)OCO4)c2n1 | 0.777 µM | 31.5
O=C(Nc1cccc(Cl)c1)c1cc2ccccc2cc1O | 4.65 µM and 2.68 µM | > 100
Nc1c(C(=O)N/N=C/c2ccc(-c3ccc(Cl)cc3)o2)cnn1-c1ccnc2c(C(F)(F)F)cccc12 | > 100 µM | > 100
CCCCCc1c(C)[nH]c(/C=C2\N=C(c3ccc[nH]3)C=C2CC)c1C | < 0.0131 µM | 0.0452
N#CC1(C2SCCS2=O)C2=C(C(=O)c3ccccc3C2=O)N2CCCC21 (stereo not given) |  | 10.7
Cc1c[n+](Cc2ccc3ccccc3c2)cn1Cc1ccc2ccccc2c1 | 2.12 µM | 5.87
COc1cc(/C=C2\C(=O)Nc3ccc(F)cc32)cc(OC)c1OC | 23.7 µM | > 100
COC(COC(=O)N1CCN(C=O)CC1)C1=C(N2CC2)C(=O)C(C)=C(N2CC2)C1=O (stereo not given) |  | 3.05
O=C(N/N=C\c1cc(Br)ccc1O)c1ccncc1 | 1.86 µM | 32.6
COc1ccc(-n2cc(-c3ccc(Cl)c(Cl)c3)nc2SCc2cccc(C#N)c2)cc1 | 77 µM | > 100
O=C1/C(=C\c2cccn2Cc2ccccc2)c2ccccc2N1c1c(Cl)cccc1Cl | 14.9 µM | > 100

test system: PC-3 prostate; experiment: NCI tumour cell line growth inhibition, 48 h

Compound | GI50 | TGI [µM]
Nc1nc(Nc2ccccc2)c2ncn(Cc3cc4c(cc3Br)OCO4)c2n1 | 0.0801 µM | 46.9
O=C(Nc1cccc(Cl)c1)c1cc2ccccc2cc1O | 1.73 µM and 2 µM | > 100
Nc1c(C(=O)N/N=C/c2ccc(-c3ccc(Cl)cc3)o2)cnn1-c1ccnc2c(C(F)(F)F)cccc12 | 35 µM | > 100
CCCCCc1c(C)[nH]c(/C=C2\N=C(c3ccc[nH]3)C=C2CC)c1C | < 0.011 µM | 1.23
N#CC1(C2SCCS2=O)C2=C(C(=O)c3ccccc3C2=O)N2CCCC21 (stereo not given) |  | 14.7
Cc1c[n+](Cc2ccc3ccccc3c2)cn1Cc1ccc2ccccc2c1 | 1.27 µM | 2.84
COc1cc(/C=C2\C(=O)Nc3ccc(F)cc32)cc(OC)c1OC | 40.4 µM | > 100
COC(COC(=O)N1CCN(C=O)CC1)C1=C(N2CC2)C(=O)C(C)=C(N2CC2)C1=O (stereo not given) |  | 3.24
O=C(N/N=C\c1cc(Br)ccc1O)c1ccncc1 | 1.87 µM | > 100
COc1ccc(-n2cc(-c3ccc(Cl)c(Cl)c3)nc2SCc2cccc(C#N)c2)cc1 | 34.1 µM | > 100
O=C1/C(=C\c2cccn2Cc2ccccc2)c2ccccc2N1c1c(Cl)cccc1Cl | 5.93 µM | > 100

test system: EKVX NSCLC; experiment: NCI tumour cell line growth inhibition, 48 h

Compound | GI50 | TGI [µM]
Nc1nc(Nc2ccccc2)c2ncn(Cc3cc4c(cc3Br)OCO4)c2n1 | < 0.0276 µM | > 100
O=C(Nc1cccc(Cl)c1)c1cc2ccccc2cc1O | 2.76 µM and 2.05 µM | > 100
Nc1c(C(=O)N/N=C/c2ccc(-c3ccc(Cl)cc3)o2)cnn1-c1ccnc2c(C(F)(F)F)cccc12 | > 100 µM | > 100
CCCCCc1c(C)[nH]c(/C=C2\N=C(c3ccc[nH]3)C=C2CC)c1C | 0.0216 µM | 0.364
N#CC1(C2SCCS2=O)C2=C(C(=O)c3ccccc3C2=O)N2CCCC21 (stereo not given) |  | 13.9
Cc1c[n+](Cc2ccc3ccccc3c2)cn1Cc1ccc2ccccc2c1 | 2.15 µM | 9.71
COc1cc(/C=C2\C(=O)Nc3ccc(F)cc32)cc(OC)c1OC | 33.1 µM | > 100
COC(COC(=O)N1CCN(C=O)CC1)C1=C(N2CC2)C(=O)C(C)=C(N2CC2)C1=O (stereo not given) |  | 10.9
O=C(N/N=C\c1cc(Br)ccc1O)c1ccncc1 | 1.8 µM | 38.5
COc1ccc(-n2cc(-c3ccc(Cl)c(Cl)c3)nc2SCc2cccc(C#N)c2)cc1 | 41.9 µM | > 100
O=C1/C(=C\c2cccn2Cc2ccccc2)c2ccccc2N1c1c(Cl)cccc1Cl | 1.42 µM | > 28.1
